# Patent US6479435B1, “Diaryl ethers and processes for their preparation and herbicidal and desiccant compositions containing them” (ISK Americas Incorporated, priority 1997, dated 2002)
# Key:
# Assay type in all cases: in vivo
# [1] = test system: upland rice (Oryza sp., var.Tebonnet, RICE); experiment: Post-emerge greenhouse test, crop damage rating; settings: 14 days after application, scale 0-100
# Outline: (§1)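 Compounds in acetone with 0.25% v/v non-ionic surfactant were track-sprayed at 187 l/ha over plants at the 2-3 leaf stage, at 63 to 1000 g ai/ha. Pots were bottom-watered. Injury was scored visually 14 days later on a 0-100 scale, where 0 is no damage and 100 is complete plant death.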
# [2] = test system: field corn (Zea mays L., var. Dekalb 535, CORN); experiment: Post-emerge greenhouse test, crop damage rating; settings: 14 days after application, scale 0-100
# Outline: as §1
# [3] = test system: soybean (Glycine max L., var. Pella 86, SOY); experiment: Post-emerge greenhouse test, crop damage rating; set-up: key to crop damage rating SOY: 0-100 scale: 0 = no damage, 100 = complete death of all plants; settings: 14 days after application, scale 0-100
# Outline: as §1
# [4] = test system: Johnsongrass (Sorghum halepense, SORHA); experiment: Pre-emerge greenhouse herbicide test, phytotoxicity rating; settings: 14 days after application, rating scale 0-100
# Outline: (§2)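 Seeds sown in sandy loam mix one day before track-sprayer application of compounds in acetone at 125–1000 g ai/ha (187 l/ha), then surface-watered to incorporate and bottom-watered. Visual rating 14 days after application on a 0–100 scale (0 = no damage, 100 = all plants dead).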
# [5] = test system: lambsquarters (Chenopodium album, CHEAL); experiment: as above; settings: 14 days after application, rating scale 0-100
# Outline: as §2
# [6] = test system: common ragweed (Ambrosia artemisiifolia L., AMBEL); experiment: as above; settings: 14 days after application, rating scale 0-100
# Outline: as §2
# [7] = test system: sicklepod (Cassia obtusifolia, CASOB); experiment: as above; settings: 14 days after application, rating scale 0-100
# Outline: as §2
# [8] = test system: large crabgrass (Digitaria sanguinalis, DIGSA); experiment: as above; settings: 14 days after application, rating scale 0-100
# Outline: as §2
# [9] = test system: green foxtail (Setaria viridis, SETVI); experiment: as above; settings: 14 days after application, rating scale 0-100
# Outline: as §2
# [10] = test system: barnyardgrass (Echinochloa crusgalli, ECHCG); experiment: as above; settings: 14 days after application, rating scale 0-100
# Outline: as §2
# [11] = test system: redroot pigweed (Amaranthus retroflexus, AMARE); experiment: as above; settings: 14 days after application, rating scale 0-100
# Outline: as §2
# [12] = test system: ivyleaf morningglory (Ipomoea hederacea, IPOHE); experiment: as above; settings: 14 days after application, rating scale 0-100
# Outline: as §2
# [13] = test system: velvetleaf (Abutilon theophrasti, ABUTH); experiment: as above; settings: 14 days after application, rating scale 0-100
# Outline: as §2
# [14] = test system: common ragweed (Ambrosia artemisiifolia L., AMBEL); experiment: Post-emerge greenhouse herbicide test, phytotoxicity rating; settings: 14 days after application, scale 0-100
# Outline: as §1
# [15] = test system: upland rice (Oryza sp., var.Tebonnet, RICE); experiment: Pre-emerge greenhouse test, crop damage rating; settings: 14 days after application, rating scale 0-100
# Outline: as §2
# [16] = test system: field corn (Zea mays L., var. Dekalb 535, CORN); experiment: Pre-emerge greenhouse test, crop damage rating; settings: 14 days after application, rating scale 0-100
# Outline: as §2
# [17] = test system: soybean (Glycine max L., var. Pella 86, SOY); experiment: Pre-emerge greenhouse test, crop damage rating; set-up: key to SOY crop damage rating: 0 = no damage, 100 = complete death of all plants; settings: 14 days after application, rating scale 0-100
# Outline: as §2
# [18] = test system: Johnsongrass (Sorghum halepense, SORHA); experiment: Post-emerge greenhouse herbicide test, phytotoxicity rating; settings: 14 days after application, scale 0-100
# Outline: as §1
# [19] = test system: lambsquarters (Chenopodium album, CHEAL); experiment: as above; settings: 14 days after application, scale 0-100
# Outline: as §1
# [20] = test system: sicklepod (Cassia obtusifolia, CASOB); experiment: as above; settings: 14 days after application, scale 0-100
# Outline: as §1
# [21] = test system: large crabgrass (Digitaria sanguinalis, DIGSA); experiment: as above; settings: 14 days after application, scale 0-100
# Outline: as §1
# [22] = test system: green foxtail (Setaria viridis, SETVI); experiment: as above; settings: 14 days after application, scale 0-100
# Outline: as §1
# [23] = test system: barnyardgrass (Echinochloa crusgalli, ECHCG); experiment: as above; settings: 14 days after application, scale 0-100
# Outline: as §1
# [24] = test system: redroot pigweed (Amaranthus retroflexus, AMARE); experiment: as above; settings: 14 days after application, scale 0-100
# Outline: as §1
# [25] = test system: ivyleaf morningglory (Ipomoea hederacea, IPOHE); experiment: as above; settings: 14 days after application, scale 0-100
# Outline: as §1
# [26] = test system: velvetleaf (Abutilon theophrasti, ABUTH); experiment: as above; settings: 14 days after application, scale 0-100
# Outline: as §1
structure (smiles),measurement,setting,value
O=c1n(-c2cc(Oc3nc(F)c(F)cc3F)c(Cl)cc2F)c(=S)n2n1CCCC2 [Compound 8-28],crop damage rating RICE,[1]; rate 63 g ai/ha,10
same,crop damage rating RICE,[1]; rate 500 g ai/ha,40
same,crop damage rating CORN,[2]; rate 63 g ai/ha,10
same,crop damage rating CORN,[2]; rate 500 g ai/ha,20
same,crop damage rating SOY,[3]; rate 63 g ai/ha,50
same,crop damage rating SOY,[3]; rate 500 g ai/ha,90
same,SORHA phytotoxicity rating,[4]; Rate 125 g al/ha,90
same,SORHA phytotoxicity rating,[4]; Rate 500 g al/ha,95
same,CHEAL phytotoxicity rating,[5]; Rate 125 g al/ha,100
same,CHEAL phytotoxicity rating,[5]; Rate 500 g al/ha,100
same,AMBEL phytotoxicity rating,[6]; Rate 125 g al/ha,80
same,AMBEL phytotoxicity rating,[6]; Rate 500 g al/ha,100
same,CASOB phytotoxicity rating,[7]; Rate 125 g al/ha,100
same,CASOB phytotoxicity rating,[7]; Rate 500 g al/ha,90
same,DIGSA phytotoxicity rating,[8]; Rate 125 g al/ha,100
same,DIGSA phytotoxicity rating,[8]; Rate 500 g al/ha,100
same,SETVI phytotoxicity rating,[9]; Rate 125 g al/ha,100
same,SETVI phytotoxicity rating,[9]; Rate 500 g al/ha,100
same,ECHCG phytotoxicity rating,[10]; Rate 125 g al/ha,60
same,ECHCG phytotoxicity rating,[10]; Rate 500 g al/ha,95
same,AMARE phytotoxicity rating,[11]; Rate 125 g al/ha,100
same,AMARE phytotoxicity rating,[11]; Rate 500 g al/ha,100
same,IPOHE phytotoxicity rating,[12]; Rate 125 g al/ha,30
same,IPOHE phytotoxicity rating,[12]; Rate 500 g al/ha,40
same,ABUTH phytotoxicity rating,[13]; Rate 125 g al/ha,100
same,ABUTH phytotoxicity rating,[13]; Rate 500 g al/ha,100
same,phytotoxicity rating AMBEL,[14]; rate 63 g ai/ha,50
same,phytotoxicity rating AMBEL,[14]; rate 500 g ai/ha,90
same,RICE crop damage rating,[15]; Rate 125 g al/ha,25
same,RICE crop damage rating,[15]; Rate 500 g al/ha,70
same,CORN crop damage rating,[16]; Rate 125 g al/ha,15
same,CORN crop damage rating,[16]; Rate 500 g al/ha,15
same,SOY crop damage rating,[17]; Rate 125 g al/ha,10
same,SOY crop damage rating,[17]; Rate 500 g al/ha,10
same,phytotoxicity rating SORHA,[18]; rate 63 g ai/ha,40
same,phytotoxicity rating SORHA,[18]; rate 500 g ai/ha,60
same,phytotoxicity rating CHEAL,[19]; rate 63 g ai/ha,90
same,phytotoxicity rating CHEAL,[19]; rate 500 g ai/ha,100
same,phytotoxicity rating CASOB,[20]; rate 63 g ai/ha,50
same,phytotoxicity rating CASOB,[20]; rate 500 g ai/ha,100
same,phytotoxicity rating DIGSA,[21]; rate 63 g ai/ha,20
same,phytotoxicity rating DIGSA,[21]; rate 500 g ai/ha,30
same,phytotoxicity rating SETVI,[22]; rate 63 g ai/ha,30
same,phytotoxicity rating SETVI,[22]; rate 500 g ai/ha,90
same,phytotoxicity rating ECHCG,[23]; rate 63 g ai/ha,10
same,phytotoxicity rating ECHCG,[23]; rate 500 g ai/ha,80
same,phytotoxicity rating AMARE,[24]; rate 63 g ai/ha,100
same,phytotoxicity rating AMARE,[24]; rate 500 g ai/ha,100
same,phytotoxicity rating IPOHE,[25]; rate 63 g ai/ha,90
same,phytotoxicity rating IPOHE,[25]; rate 500 g ai/ha,95
same,phytotoxicity rating ABUTH,[26]; rate 63 g ai/ha,100
same,phytotoxicity rating ABUTH,[26]; rate 500 g ai/ha,100
